For 40 compounds, IC50 results are on record in patent US5436254A, “Carbostyril derivatives” (Otsuka Pharmaceutical Company, Ltd., priority 1989, dated 1995).

In the first assay the target is V1 receptor (Rattus norvegicus, UniProt P30560). The experiment in a line: biochemical. Format: binding.
V1 receptor, sequence (P30560 whole entry): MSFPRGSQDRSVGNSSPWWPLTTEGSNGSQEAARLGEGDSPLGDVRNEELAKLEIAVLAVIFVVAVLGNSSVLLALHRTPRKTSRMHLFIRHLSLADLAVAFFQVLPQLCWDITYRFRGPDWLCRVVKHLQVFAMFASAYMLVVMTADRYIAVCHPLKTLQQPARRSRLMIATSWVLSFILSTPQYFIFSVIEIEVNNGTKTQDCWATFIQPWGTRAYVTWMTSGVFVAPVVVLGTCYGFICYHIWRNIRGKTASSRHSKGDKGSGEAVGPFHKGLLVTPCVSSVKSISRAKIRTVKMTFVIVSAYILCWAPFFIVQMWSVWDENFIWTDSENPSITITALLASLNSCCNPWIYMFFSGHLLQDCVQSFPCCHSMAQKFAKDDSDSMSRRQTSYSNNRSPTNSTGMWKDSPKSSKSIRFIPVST
Settings: not given
`COc1cc(Cl)ccc1C(=O)N1CCC(N2C(=O)CCc3ccccc32)CC1` [Example 54, 1-[1-(2-Methoxy-4-chlorobenzoyl)-4-piperidinyl]-3,4-dihydrocarbostyril] displayed an IC50 of 270 nM. In the case of `COc1ccc(C(=O)N2CCC(N3C(=O)CCc4ccccc43)CC2)c(N(C)C)c1` [Example 55, 1-[1-(2-Dimethylamino-4-methoxybenzoyl)-4-piperidinyl]-3,4-dihydrocarbostyril], 200 nM corresponded to half-maximal inhibition (IC50). The compound `CCNc1cc(OC)ccc1C(=O)N1CCC(N2C(=O)CCc3ccccc32)CC1` [Example 56, 1-[1-(2-Ethylamino-4-methoxybenzoyl)-4-piperidinyl]-3,4-dihydrocarbostyril] registered an IC50 of 330 nM. Compound `CCCNc1cc(OC)ccc1C(=O)N1CCC(N2C(=O)CCc3ccccc32)CC1` [Example 57, 1-[1-(2-Propylamino-4-methoxybenzoyl)-4-piperidinyl]-3,4-dihydrocarbostyril] yielded an IC50 of 270 nM. As to `CCN(C)c1cc(OC)ccc1C(=O)N1CCC(N2C(=O)CCc3ccccc32)CC1` [Example 58, 1-{1-[2-(N-Methyl-N-ethylamino)-4-methoxybenzoyl]-4-piperidinyl}-3,4-dihydrocarbostyril], the IC50 was 450 nM. The same measure, in the same setting: in the case of `CCOc1cc(OC)ccc1C(=O)N1CCC(N2C(=O)CCc3ccccc32)CC1` [Example 59, 1-[1-(2-Ethoxy-4-methoxybenzoyl)-4-piperidinyl]-3,4-dihydrocarbostyril] it was 200 nM; in that of `COc1ccc(C(=O)N2CCC(N3C(=O)CCc4ccccc43)CC2)c(O)c1` [Example 60, 1-[1-(2-Hydroxy-4-methoxybenzoyl)-4-piperidinyl]-3,4-dihydrocarbostyril], 200 nM. `COc1ccc(C(=O)N2CCC(N3C(=O)CCc4ccccc43)CC2)c(OC(C)=O)c1` [Example 61, 1-[1-(2-Acetoxy-4-methoxybenzoyl)-4-piperidinyl]-3,4-dihydrocarbostyril] gave a half-inhibitory concentration (IC50) of 300 nM.

`C=CCOc1cc(OC)ccc1C(=O)N1CCC(N2C(=O)CCc3ccccc32)CC1` [Example 62, 1-[1-(2-Allyloxy-4-methoxybenzoyl)-4-piperidinyl]-3,4-dihydrocarbostyril] gave an IC50 of 150 nM. On the same count and under the same terms, in the case of `COc1ccc(C(=O)N2CCC(N3C(=O)CCc4ccccc43)CC2)c(OCCCO)c1` [Example 63, 1-{1-[2-(3-Hydroxypropoxy)-4-methoxybenzoyl]-piperidinyl}-3,4-dihydrocarbostyril] it was 270 nM. Still for that read-out and setting: in the case of `COc1ccc(C(=O)N2CCC(N3C(=O)CCc4ccccc43)CC2)c(OCCCOC(C)=O)c1` [Example 64, 1-{1-[2-(3-Acetoxypropoxy)-4-methoxybenzoyl]-piperidinyl}-3,4-dihydrocarbostyril] it was 460 nM. `COc1ccc(C(=O)N2CCC(N3C(=O)CCc4ccccc43)CC2)c(OCCCOC(N)=O)c1` [Example 65, 1-{1-[2-(3-Carbamoyloxypropoxy)-4-methoxybenzoyl]-4-piperidinyl}-3,4-dihydrocarbostyril] displayed an IC50 of 270 nM. Same read-out and setting: in the case of `COCCCOc1cc(OC)ccc1C(=O)N1CCC(N2C(=O)CCc3ccccc32)CC1` [Example 66, 1-{1-[2-(3-Methoxypropoxy)-4-methoxybenzoyl]-piperidinyl}-3,4-dihydrocarbostyril] it was 410 nM; in that of `COc1ccc(C(=O)N2CCC(N3C(=O)CCc4ccccc43)CC2)c(OCCCC(N)=O)c1` [Example 67, 1-{1-[2-(3-Carbamoylpropoxy)-4-methoxybenzoyl]-4-piperidinyl}-3,4-dihydrocarbostyril], 470 nM; in that of `COc1ccc(C(=O)N2CCC(N3C(=O)CCc4ccccc43)CC2)c(OCCO)c1` [Example 68, 1-{1-[2-(2-Hydroxyethoxy)-4-methoxybenzoyl]-4-piperidinyl}-3,4-dihydrocarbostyril], 360 nM. Same read-out and setting: for `COc1ccc(C(=O)N2CCC(N3C(=O)CCc4ccccc43)CC2)c(OCCOC(C)=O)c1` [Example 69, 1-{1-[2-(2-Acetoxyethoxy)-4-methoxybenzoyl]-4-piperidinyl}-3,4-dihydrocarbostyril] the value was 420 nM. The same measure, in the same setting: in the case of `COCCOc1cc(OC)ccc1C(=O)N1CCC(N2C(=O)CCc3ccccc32)CC1` [Example 70, 1-{1-[2-(2-Methoxyethoxy)-4-methoxybenzoyl]-4-piperidinyl}-3,4-dihydrocarbostyril] it was 320 nM; in that of `O=C(c1ccccc1)c1ccc(C(=O)N2CCC(N3C(=O)CCc4ccccc43)CC2)cc1` [Example 72, 1-[1-(4-Benzoylbenzoyl)-4-piperidinyl]-3,4-dihydrocarbostyril], 480 nM; in that of `CCSc1ccc(C(=O)N2CCC(N3C(=O)CCc4ccccc43)CC2)cc1` [Example 74, 1-[1-(4-Ethylthiobenzoyl)-4-piperidinyl]-3,4-dihydrocarbostyril], 180 nM. Regarding `Cc1ccc(C(=O)N2CCC(N3C(=O)CCc4ccccc43)CC2)cc1C` [Example 78, 1-[1-(3,4-Dimethylbenzoyl)-4-piperidinyl]-3,4-dihydrocarbostyril], 400 nM corresponded to half-maximal inhibition (IC50). `COc1ccc(C(=O)N2CCC(N3C(=O)CCc4cc(F)ccc43)CC2)c(OC)c1` [Example 79, 6-Fluoro-1-[1-(2,4-dimethoxybenzoyl)-4-piperidinyl]-3,4-dihydrocarbostyril] yielded an IC50 of 500 nM. Consider `COc1cc(SC)ccc1C(=O)N1CCC(N2C(=O)CCc3ccc(F)cc32)CC1` [Example 80, 7-Fluoro-1-[1-(2-methoxy-4-methylthiobenzoyl)-4-piperidinyl]-3,4-dihydrocarbostyril], for which 80 nM corresponded to half-maximal inhibition (IC50). Still for that read-out and setting: for `COc1ccc(C(=O)N2CCC(N3C(=O)CCc4ccc(C)cc43)CC2)c(OC)c1` [Example 81, 7-Methyl-1-[1-(2,4-dimethoxybenzoyl)-4-piperidinyl]-3,4-dihydrocarbostyril] the value was 210 nM.

`O=C1CCc2ccccc2N1C1CCN(C(=O)C23CC4CC(CC(C4)C2)C3)CC1` [Example 83, 1-(1-Tricyclo[3.3.1.1^3,7]decanylcarbonyl-4-piperidinyl)-3,4-dihydrocarbostyril] had an IC50 of 500 nM. Still for that read-out and setting: in the case of `COc1ccc(N2CCN(CCCOc3ccc(C(=O)N4CCC(N5C(=O)CCc6ccccc65)CC4)cc3)CC2)cc1` [Example 86, 1-{1-[4-(3-[4-(4-Methoxyphenyl)-1-piperazinyl]propoxy)benzoyl]-4-piperidinyl)-3,4-dihydrocarbostyril] it was 570 nM.

`C=CCOCCCOc1ccc(C(=O)N2CCC(N3C(=O)CCc4ccccc43)CC2)cc1` [Example 87, 1-(1-[4-(3-Allyloxypropoxy)benzoyl]-4-piperidinyl}-3,4-dihydrocarbostyril] gave an IC50 of 530 nM.

In the case of `NC(=O)CCCNc1ccc(C(=O)N2CCC(N3C(=O)CCc4ccccc43)CC2)cc1` [Example 88, 1-{1-[4-(3-Carbamoylpropylamino)benzoyl]-4-piperidinyl)-3,4-dihydrocarbostyril], the half-inhibitory concentration (IC50) stood at 1000 nM.

`CCSc1nccn1-c1ccc(C(=O)N2CCC(N3C(=O)CCc4ccccc43)CC2)cc1` [Example 89, 1-{1-[4-(2-Ethylthioimidazol-1-yl)benzoyl]-4-piperidinyl)-3,4-dihydrocarbostyril] returned an IC50 of 1600 nM.

For the compound `C=CCN(C)c1ccc(C(=O)N2CCC(N3C(=O)CCc4ccccc43)CC2)cc1` [Example 90, 1-{1-[4-(N-Allyl-N-methylamino)benzoyl]-4-piperidinyl)-3,4-dihydrocarbostyril], the half-maximal inhibitory concentration (IC50) was 1100 nM. Compound `O=C(c1ccc(N2CCCC2)cc1)N1CCC(N2C(=O)CCc3ccccc32)CC1` [Example 91, 1-{1-[4-(1-Pyrrolidinyl)benzoyl]-4-piperidinyl}-3,4-dihydrocarbostyril] registered an IC50 of 720 nM. `CN(CCCOc1ccc(C(=O)N2CCC(N3C(=O)CCc4ccccc43)CC2)cc1)C(=O)c1ccccc1` [Example 92, 1-[1-{4-[3-(N-Methyl-N-benzoylamino)propoxy]benzoyl}-4-piperidinyl)-3,4-dihydrocarbostyril] showed an IC50 of 1200 nM. Still for that read-out and setting: for `O=C(c1ccc(OCCCN2CCN(c3ccccc3)CC2)cc1)N1CCC(N2C(=O)CCc3ccccc32)CC1` [Example 93, 1-[1-{4-[3-(4-Phenyl-1-piperazinyl)propoxy]benzoyl)-4-piperidinyl]-3,4-dihydrocarbostyril] the value was 640 nM; for `O=C(OCCCOc1ccc(C(=O)N2CCC(N3C(=O)CCc4ccccc43)CC2)cc1)c1ccccc1` [Example 94, 1-{1-[4-(3-Benzoyloxypropoxy)benzoyl]-4-piperidinyl}-3,4-dihydrocarbostyril], 630 nM; for `CCSCCCOc1ccc(C(=O)N2CCC(N3C(=O)CCc4ccccc43)CC2)cc1` [Example 95, 1-{1-[4-(3-Ethylthiopropoxy)benzoyl]-4-piperidinyl}-3,4-dihydrocarbostyril], 960 nM. On the same count and under the same terms, for `O=C(c1ccc(OCc2ccccc2)cc1)N1CCC(N2C(=O)CCc3ccccc32)CC1` [Example 97, 1-[1-(4-Benzyloxybenzoyl)-4-piperidinyl]-3,4-dihydrocarbostyril] the value was 1100 nM; for `O=C(c1ccc(OC2C=CCCC2)cc1)N1CCC(N2C(=O)CCc3ccccc32)CC1` (stereo not shown) [Example 98, 1-{1-[4-(2-Cyclohexenyloxy)benzoyl]-4-piperidinyl}-3,4-dihydrocarbostyril], 770 nM; for `O=C(c1ccc(OC2CCCCC2)cc1)N1CCC(N2C(=O)CCc3ccccc32)CC1` [Example 99, 1-[1-(4-Cyclohexyloxybenzoyl)-4-piperidinyl]3,4-dihydrocarbostyril], 960 nM.

The same assay, now with this note: [H]3-Arg-vasopressin 2×10^-10 M, rat liver plasma membrane, 37° C., 10 minutes, pH 8.0; read-out: IC50.
As for `COc1cc(SC)ccc1C(=O)N1CCC(N2C(=O)CCc3ccccc32)C1` (stereo not shown) [Example 84, 1-[1-(2-Methoxy-4-methylthiobenzoyl)-3-pyrrolidinyl]-3,4-dihydrocarbostyril], the IC50 amounted to 7100 nM.

As for `COc1ccc(N(Cc2ccccc2)C(=O)c2ccc(N3C(=O)CCc4ccccc43)cc2)cc1` [Example 85], the half-maximal inhibitory concentration (IC50) was found to be 3000 nM.

Still in this assay, the particulars now being: read-out: IC50.
For `CCOc1ccc(C(=O)N2CCC(n3c(=O)ccc4ccccc43)CC2)c(OC)c1` [Example 82, 1-[1-(2-Methoxy-4-ethoxybenzoyl)-4-piperidinyl]carbostyril], the IC50 amounted to 330 nM.

In general, IC50 refers to the concentration that gives 50% inhibition.
